Measurements from PubChem BioAssay AID1361 (SRMLSC, 2008).
Active and inactive are the calls of the source. The rule behind the calls is not given here.

Experiment: mitochondrial fusion inhibitors, confirmation, cell-based, chemical genetic, wild-type and mutant (AID 1361)
Conditions: Cell-based mitochondrial fusion phenotype, imaging
[1] = mutant cells, measured here: mutant cell line IC50

Cc1ccc(NC(=S)N(CCCN2CCCC2)Cc2cccn2Cc2ccc(Cl)cc2)cc1C
IC50 (WT cells): 13.1 µM
IC50 [1]: > 25 µM

CC1(C(=O)N(Cc2ccccc2)Cc2ccccc2)CC1(Br)Br (centres undefined)
IC50 (WT cells): 15.7 µM
IC50 [1]: > 25 µM

CCOc1ccc(OCC)c(S(=O)(=O)NCCOC23CC4CC(CC(C4)C2)C3)c1
IC50 (WT cells): > 25 µM (inactive)
IC50 [1]: > 25 µM

COC(=O)CCC(=O)COc1ccc(OC)cc1C#N
IC50 (WT cells): > 25 µM (inactive)
IC50 [1]: > 25 µM

Cc1csc(NC(=O)c2cccn2C)n1
IC50 (WT cells): > 25 µM (inactive)
IC50 [1]: > 25 µM

COC(=O)C1=C(C)N(C(C)c2ccccc2)C(=O)/C1=C\c1ccco1 (centres undefined)
IC50 (WT cells): 24.2 µM
IC50 [1]: > 25 µM

Cc1ccc(-c2nn(-c3ccccc3)cc2CSC(=N)N)cc1
IC50 (WT cells): > 25 µM (inactive)
IC50 [1]: > 25 µM

Cc1cc(Br)ccc1NC(=O)CN1C(=O)C2C3CC(c4ccccc4)C(C3)C2C1=O (centres undefined)
IC50 (WT cells): 20.4 µM
IC50 [1]: > 25 µM

O=C(CCSc1ccc(Cl)cc1)NC12CC3CC(CC(C3)C1)C2
IC50 (WT cells): 13.1 µM
IC50 [1]: > 25 µM

COCCn1c(CN2CCC(Cc3ccccc3)CC2)nc2c1c(=O)n(C)c(=O)n2C
IC50 (WT cells): > 25 µM (inactive)
IC50 [1]: > 25 µM

C/C(=N\N1CCCCC1c1cccnc1)c1c(O)n(C2CCCCC2)c(=S)[nH]c1=O (centres undefined)
IC50 (WT cells): > 25 µM (inactive)
IC50 [1]: > 25 µM

COc1ccc2ccc3c(c2c1)N=CC1(O3)N(C)c2ccccc2C1(C)C (centres undefined)
IC50 (WT cells): 6.02 µM
IC50 [1]: > 25 µM

CCOC(=O)N1CCN(C(=O)CN(C)S(=O)(=O)c2ccc3c(c2)C(C)(C)C(=O)N3C)CC1
IC50 (WT cells): > 25 µM (inactive)
IC50 [1]: > 25 µM

Cc1nc(N2CCC(C)CC2)c2c(C)c(C(=O)Nc3cc(F)ccc3C)sc2n1
IC50 (WT cells): 19.7 µM
IC50 [1]: > 25 µM

CC(=O)Cc1nsc(NC(=O)c2ccc(-c3cc(Cl)ccc3Cl)o2)n1
IC50 (WT cells): > 25 µM (inactive)
IC50 [1]: > 25 µM

CC1Cc2ccccc2N1C(=O)Cn1c(=O)cc(O)c2ccccc21 (centres undefined)
IC50 (WT cells): > 25 µM (inactive)
IC50 [1]: > 25 µM

Cc1cc(C)nc(N2CCCC(C(=O)NCc3cccs3)C2)n1 (centres undefined)
IC50 (WT cells): > 25 µM (inactive)
IC50 [1]: > 25 µM

CCOc1cc(C(=O)N(C)Cc2cc3ccccc3[nH]c2=O)cc(OCC)c1OCC
IC50 (WT cells): > 25 µM (inactive)
IC50 [1]: > 25 µM

CCC(C)(C)NC(=O)C(c1ccc(C)cc1)N(Cc1cccs1)C(=O)c1ccc2c(c1)OCCO2 (centres undefined)
IC50 (WT cells): 14.1 µM
IC50 [1]: > 25 µM

O=C(COC(=O)Cc1c(Cl)cccc1Cl)Nc1ccccc1-c1ccccc1
IC50 (WT cells): 13.3 µM
IC50 [1]: > 25 µM

CCNc1nc(SCCOc2ccc(Cl)cc2Cl)nc(N(C)C)n1
IC50 (WT cells): 8.3 µM
IC50 [1]: 23.8 µM

CC1=C(C#N)C(NC(=O)c2ccc(C)cc2)(C(F)(F)F)C(=O)N1 (centres undefined)
IC50 (WT cells): > 25 µM (inactive)
IC50 [1]: > 25 µM

CC/C(=C\C1CCCCC1)C(NP(=O)(c1ccccc1)c1ccccc1)c1ccccc1 (centres undefined)
IC50 (WT cells): 7.6 µM
IC50 [1]: > 25 µM

Cn1c(=O)c2c(nc(N3CCCCCC3)n2Cc2cccc3ccccc23)n(C)c1=O
IC50 (WT cells): 10 µM
IC50 [1]: > 25 µM

CCOc1ccccc1CNC(=O)c1ccc(Sc2ccc(Cl)cc2)c(NC(C)=O)c1
IC50 (WT cells): 16.9 µM
IC50 [1]: > 25 µM

O=C(CCc1ccccc1)NC(=S)Nc1cccc(Br)c1
IC50 (WT cells): 13.7 µM
IC50 [1]: 21.4 µM

CCCC(=O)NC(=S)Nc1cccc(Cl)c1N1CCCCC1
IC50 (WT cells): 22.5 µM
IC50 [1]: > 25 µM

COc1ccc(CCn2nnnc2C(CC(C)C)N2CCN(c3ncccn3)CC2)cc1OC (centres undefined)
IC50 (WT cells): > 25 µM (inactive)
IC50 [1]: > 25 µM

COC(=O)C1CCN(C(=O)c2cc(OC)c(OC)c(OC)c2)CC1
IC50 (WT cells): > 25 µM (inactive)
IC50 [1]: > 25 µM

COCCNC(=O)CC(NS(=O)(=O)c1ccc(C)cc1)c1ccco1 (centres undefined)
IC50 (WT cells): > 25 µM (inactive)
IC50 [1]: > 25 µM

CCCCOC(=O)c1ccc(NC(=O)c2ccccc2OC)cc1
IC50 (WT cells): > 25 µM (inactive)
IC50 [1]: > 25 µM

Cc1nc(N2CCCCC2)c2c(-c3cccs3)csc2n1
IC50 (WT cells): 22.4 µM
IC50 [1]: > 25 µM

CCCCSc1nnc(CNC(=O)C23CC4CC(CC(C4)C2)C3)n1Cc1ccccc1
IC50 (WT cells): > 25 µM (inactive)
IC50 [1]: > 25 µM

COc1ccccc1N1CCN(C(=O)c2ccc(CSc3ccccc3)cc2)CC1
IC50 (WT cells): 15.4 µM
IC50 [1]: > 25 µM

Cc1ncsc1C(=O)N1N=C2/C(=C/c3ccccc3)CCCC2C1c1ccccc1 (centres undefined)
IC50 (WT cells): 10.3 µM
IC50 [1]: > 25 µM

CCCC(NC(=S)NCC1CCCO1)C12CC3CC(CC(C3)C1)C2 (centres undefined)
IC50 (WT cells): 7.52 µM
IC50 [1]: > 25 µM

CC(=O)Nc1ccc(S(=O)(=O)N2CCSC2c2ccc(Cl)cc2)cc1 (centres undefined)
IC50 (WT cells): > 25 µM (inactive)
IC50 [1]: > 25 µM

Cc1ccc2nc(-c3ccccc3)c(CN3CCN(c4ccccc4F)CC3)n2c1
IC50 (WT cells): 15.6 µM
IC50 [1]: > 25 µM

COCCNC(=O)c1cccc(Nc2nc(-c3ccccc3)c3cc(Cl)ccc3n2)c1
IC50 (WT cells): 19.4 µM
IC50 [1]: > 25 µM

CCCCNC(=S)N(C)/N=C/c1c(F)c(F)c(F)c(F)c1F
IC50 (WT cells): > 25 µM (inactive)
IC50 [1]: > 25 µM

Clc1ccc(C2=NNC(=NCc3ccc4c(c3)OCO4)SC2)cc1
IC50 (WT cells): > 25 µM (inactive)
IC50 [1]: > 25 µM

O=C(c1ccc(-c2nnc(-c3ccccc3)o2)cc1)N1CCCCCC1
IC50 (WT cells): > 25 µM (inactive)
IC50 [1]: > 25 µM

Cc1cc(Br)c(OCc2ccc(C(=O)N/N=C3\CC4CC=CC34)cc2)c(Br)c1 (centres undefined)
IC50 (WT cells): 7.88 µM
IC50 [1]: 14.2 µM

CCCN(CCC)C(=O)CC(c1ccccc1)c1cc(Br)ccc1O (centres undefined)
IC50 (WT cells): 13.7 µM
IC50 [1]: > 25 µM

O=C1CC(SCc2nc3ccccc3[nH]2)C(=O)N1c1cccc(F)c1 (centres undefined)
IC50 (WT cells): > 25 µM (inactive)
IC50 [1]: > 25 µM

CCN1CCN(CCNC(=O)c2ccc(/C=C3\Sc4ccccc4N(Cc4ccccc4F)C3=O)cc2)CC1
IC50 (WT cells): 18.9 µM (inactive)
IC50 [1]: > 12.5 µM

O=C(NCc1nnc(SCc2ccc(C(F)(F)F)cc2)n1-c1ccccc1)C12CC3CC(CC(C3)C1)C2
IC50 (WT cells): 18 µM
IC50 [1]: > 25 µM

Cc1ccc(-n2cc(-c3ccccc3)c3c(N4CCOCC4)ncnc32)cc1
IC50 (WT cells): 21 µM
IC50 [1]: > 25 µM

C/C(CCN1CCc2nc(-c3ccccc3)c(-c3ccccc3)cc2C1)=N\OC[C@@H](C)[C@H](OCc1ccccc1)C(C)C
IC50 (WT cells): > 25 µM (inactive)
IC50 [1]: > 25 µM

CCC(C(=O)OCC(=O)Nc1ccc(SC(F)F)cc1)c1ccccc1 (centres undefined)
IC50 (WT cells): 17.6 µM
IC50 [1]: > 25 µM

Oc1cccc(C(O)CNCc2ccc(OCc3ccc(Cl)cc3Cl)cc2)c1 (centres undefined)
IC50 (WT cells): 15 µM
IC50 [1]: 17.2 µM

CCOC(=O)C1=C(C)Nc2sc(C(=O)c3ccc(F)cc3)c(N)c2C1c1ccc(C(=O)OC)cc1 (centres undefined)
IC50 (WT cells): 2.57 µM
IC50 [1]: > 25 µM

O=C(CNC(=S)N(Cc1ccccc1)Cc1ccccc1F)NCCc1ccccc1
IC50 (WT cells): 20.1 µM
IC50 [1]: > 25 µM

CCOc1ccccc1N1CCN(C(=O)Nc2ccc(Cl)c(Cl)c2)CC1
IC50 (WT cells): 20.9 µM (inactive)
IC50 [1]: > 12.5 µM

CC(C)(C)c1ccc(CN2N=C(/C=C/c3ccccc3)CCC2=O)cc1
IC50 (WT cells): 11.3 µM
IC50 [1]: > 25 µM

CCC1CCCCN1c1cc(C)nc2cc(-c3cccc(C)c3)nn12 (centres undefined)
IC50 (WT cells): 13.1 µM
IC50 [1]: > 25 µM

CCCCCc1nc2sc3c(c2c(=O)n1NC(=O)c1ccc([N+](=O)[O-])cc1)CC(C)(C)OC3
IC50 (WT cells): 15.5 µM
IC50 [1]: > 25 µM

COc1ccc(Nc2nc(-c3ccccc3)c3ccccc3n2)cc1
IC50 (WT cells): 10.7 µM
IC50 [1]: > 25 µM

C=CCN1C(=O)C(CC(=O)Nc2ccc(OCCC)cc2)N(CCCN2CCN(Cc3ccccc3)CC2)C1=S (centres undefined)
IC50 (WT cells): > 25 µM (inactive)
IC50 [1]: > 25 µM

O=[N+]([O-])c1ccc(/C=N/Nc2nc(N3CCCCCC3)nc(N3CCCCCC3)n2)o1
IC50 (WT cells): 8.58 µM
IC50 [1]: > 25 µM

CCC(=O)Nc1ccc(Br)c(Cl)c1
IC50 (WT cells): > 25 µM (inactive)
IC50 [1]: > 25 µM

C=CCOc1ccc2ccccc2c1CNCCCN1CCOCC1
IC50 (WT cells): > 25 µM (inactive)
IC50 [1]: > 25 µM

CC(C)=CCc1c2c(c3occ(-c4ccc(O)cc4)c(=O)c3c1O)C=CC(C)(C)O2
IC50 (WT cells): 24.7 µM
IC50 [1]: > 25 µM

CNC(=S)N/N=C/c1cccc(OCc2ccccc2F)c1
IC50 (WT cells): > 25 µM (inactive)
IC50 [1]: > 25 µM

COc1ccccc1N(CC(O)COc1c(C)cc(C)cc1C)S(=O)(=O)c1ccccc1 (centres undefined)
IC50 (WT cells): 16.1 µM
IC50 [1]: > 25 µM

CC(C)C(c1nnnn1C(C)(C)C)N1CCC(Cc2ccccc2)CC1 (centres undefined)
IC50 (WT cells): 12.1 µM
IC50 [1]: > 25 µM

COC(=O)c1ccc(NC(=O)Nc2ccc(F)c(Cl)c2)cc1
IC50 (WT cells): 19.4 µM
IC50 [1]: > 25 µM

CCCCOc1c(Br)cc(/C=N/O)cc1OCC
IC50 (WT cells): > 25 µM (inactive)
IC50 [1]: > 25 µM

COc1ccccc1/C=C/C=N\N1CCN(Cc2ccccc2Cl)CC1
IC50 (WT cells): 20.9 µM
IC50 [1]: > 25 µM

COc1ccc(-c2nnc(SCC(=O)c3cccs3)o2)c(OC)c1
IC50 (WT cells): > 25 µM (inactive)
IC50 [1]: > 25 µM

Cc1oc(-c2ccccc2Cl)nc1CN1C(=O)CN=C(c2ccccc2)c2ccccc21
IC50 (WT cells): 20.5 µM
IC50 [1]: > 25 µM

O=C(N/N=C/c1cccc(O)c1)c1ccc(COc2ccccc2Br)cc1
IC50 (WT cells): 18.8 µM
IC50 [1]: > 25 µM

Brc1cnc(N2CCCCC2)nc1N1CCOCC1
IC50 (WT cells): > 25 µM (inactive)
IC50 [1]: > 25 µM

CCOC(=O)C1=CN(c2cccc(F)c2)C=C(C(=O)OCC)C1c1cc(OC)c(O)c([N+](=O)[O-])c1
IC50 (WT cells): 5.68 µM
IC50 [1]: > 25 µM

O=C(Nc1ccccc1Sc1ccccc1)c1ccc(F)cc1
IC50 (WT cells): > 25 µM (inactive)
IC50 [1]: > 25 µM

CCN(Cc1ccccc1)C(c1cccs1)c1nnnn1C1CCCCC1 (centres undefined)
IC50 (WT cells): 8.92 µM
IC50 [1]: > 25 µM

Cc1c(N(C(=O)Nc2ccccc2)C2=NCC(C)S2)c(=O)n(-c2ccccc2)n1C (centres undefined)
IC50 (WT cells): > 25 µM (inactive)
IC50 [1]: > 25 µM

CCN=c1scc(-c2ccco2)n1/N=C/c1ccc(OC)c(O)c1
IC50 (WT cells): > 25 µM (inactive)
IC50 [1]: > 25 µM

CC(C)COC(=O)c1cccc2c1-c1ccccc1/C2=N\O
IC50 (WT cells): > 25 µM (inactive)
IC50 [1]: > 25 µM

C=CCn1c(N)c(C(=O)OCC(C)C)c2nc3ccccc3nc21
IC50 (WT cells): > 25 µM (inactive)
IC50 [1]: > 25 µM

CC1(C)CC(=O)c2c(O)cc(OCc3ccc([N+](=O)[O-])cc3)cc2O1
IC50 (WT cells): > 25 µM (inactive)
IC50 [1]: > 25 µM

CCOC(=O)c1cc(-c2ccc3c(c2)OCO3)nc2onc(C)c12
IC50 (WT cells): > 25 µM (inactive)
IC50 [1]: > 25 µM
